# Patent publication US20260098019A1, “SYNTHESIS OF NSAID CONJUGATES AS ANTI-INFLAMMATORY AGENTS USING THE MOLECULAR HYBRIDIZATION” (AUGUSTA UNIVERSITY RESEARCH INSTITUTE, INC., priority 2022, published 2026)
# Where two headings read alike, the source gives them in different places. Marks after values point to notes of the source that are not given here.
# Columns and labels:
# toxicological bioassay = conditions: 50 mg/kg indomethacin mol equivalent (5 folds of anti-inflammatory dose); 24 h post-administration
# Protocol: Albino mice weighing 20-25 g were divided into 6 groups of 6 mice each. […] The toxic symptoms and mortality rates were recorded 24 h post-administration in each group.
# Five times of the anti-inflammatory dose was orally administrated.
# hot plate latency = assay: hot plate test (central analgesic); format: in vivo, albino mice; conditions: for Latency period ± SE: 10 mg/kg indomethacin mol equivalent i.p., cutoff 15 seconds; for % Protection: vs control; for Potency: at 120 min. compared to indomethacin
# Protocol: An in vivo standard hot plate test was performed. […] The control group animals were given sterile/distilled water with few drops of Tween 80. The maximum cutoff time was 15 seconds to prevent tissue damage. Response latencies were measured at 30, 60, 90 and 120 inns. The % protection was calculated by equ. (5), where, Ti, To are the latency time mean of the tested compound and control group respectively (Table 3).
# COX-1 = COX-1 (UniProt P05979); format: biochemical, human; conditions: ± SD
# Sequence of COX-1 (P05979 whole entry): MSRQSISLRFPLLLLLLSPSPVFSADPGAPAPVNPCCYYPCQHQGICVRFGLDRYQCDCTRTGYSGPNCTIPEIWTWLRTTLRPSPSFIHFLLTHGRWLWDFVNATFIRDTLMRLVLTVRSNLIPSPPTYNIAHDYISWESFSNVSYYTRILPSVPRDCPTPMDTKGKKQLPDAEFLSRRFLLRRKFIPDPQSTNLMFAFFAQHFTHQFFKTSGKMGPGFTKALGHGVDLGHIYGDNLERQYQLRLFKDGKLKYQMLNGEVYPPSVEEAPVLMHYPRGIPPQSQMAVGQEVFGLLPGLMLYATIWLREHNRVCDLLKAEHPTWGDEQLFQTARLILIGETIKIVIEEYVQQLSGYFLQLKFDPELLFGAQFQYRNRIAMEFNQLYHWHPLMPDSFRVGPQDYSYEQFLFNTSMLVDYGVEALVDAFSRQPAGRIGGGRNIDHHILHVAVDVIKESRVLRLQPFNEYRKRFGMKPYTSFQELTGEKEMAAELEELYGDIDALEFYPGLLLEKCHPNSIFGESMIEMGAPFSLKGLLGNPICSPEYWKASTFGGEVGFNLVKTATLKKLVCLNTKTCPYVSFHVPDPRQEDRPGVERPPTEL
# From the text: (§1) Rev. […] Thromb. Vasc. […] Rev. […] Rev. […] Rev. Oncol. Hematol. […] Curr. Pharm. Des. […] Luong, et al., Nat. Struct. […] A. and Marnett, L. J., Chem. Rev. […] Drug Discov. […] Biomol.
# gastric mucosa [1] = conditions: mouse, in vivo
# Protocol: (§2) The ulcerogenic liability of conjugates was determined in albino mice following a standard method. Animals of either sex (pregnant females were excluded) weighing 20-25 g were divided into 8 groups of 6 animals each. The animals fasted 18 h before drug administration. […] The control group animals were given water with a few drops of Tween 80. The animals were sacrificed by cervical dislocation and the stomach was removed, opened along the greater curvature, and rinsed with saline. The gastric mucosa was examined with a magnifying lens (10×) for the presence of lesions and erosions. The ulcer index was calculated (Table 4) and the degree of ulcerogenic effect was expressed in terms of: (1) the percentage incidence of ulcers divided by 10; (2) average number of ulcers per stomach; and (3) average severity of ulcers. The ulcer index is the value that resulted from the sum of the above three values.
# COX-2 = biological target: T1, COX-2 (Homo sapiens, UniProt P35354); assay: Inhibition of COX-2; format: biochemical; conditions: for SI: SI=IC50 (COX-1)/IC50 (COX-2); for IC50: ± SD
# T1 construct: purchased BioVision Incorporated K547-100 and K548-100 (for COX-1/2)
# T1 sequence (P35354 18-604): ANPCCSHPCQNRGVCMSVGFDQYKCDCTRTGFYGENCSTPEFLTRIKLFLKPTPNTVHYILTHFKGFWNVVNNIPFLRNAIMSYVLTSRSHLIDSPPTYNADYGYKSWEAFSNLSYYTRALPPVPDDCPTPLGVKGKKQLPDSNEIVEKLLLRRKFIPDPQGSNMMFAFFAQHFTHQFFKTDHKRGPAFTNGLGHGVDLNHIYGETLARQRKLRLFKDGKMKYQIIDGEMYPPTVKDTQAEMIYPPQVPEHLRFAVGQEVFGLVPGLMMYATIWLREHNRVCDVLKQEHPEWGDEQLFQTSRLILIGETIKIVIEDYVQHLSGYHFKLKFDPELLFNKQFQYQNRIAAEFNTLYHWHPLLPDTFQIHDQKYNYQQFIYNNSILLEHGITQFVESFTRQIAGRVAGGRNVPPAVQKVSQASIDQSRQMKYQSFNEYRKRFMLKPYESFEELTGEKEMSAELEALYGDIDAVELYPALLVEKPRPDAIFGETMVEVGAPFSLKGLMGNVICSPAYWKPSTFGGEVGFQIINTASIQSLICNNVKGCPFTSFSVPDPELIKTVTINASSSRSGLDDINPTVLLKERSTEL
# From the text: as §1
# [2] = system: acetic acid-induced writhing; assay: acetic acid-induced writhing test (peripheral analgesic); format: in vivo, albino mice; conditions: for Potency: % inhibition/protection compared to indomethacin
# Protocol: Peripheral analgesic activity was measured by the standard acetic acid-induced writhing test in mice. […] One hour after the i.p. administration, each mouse was injected with 0.1 ml of 1% acetic acid solution i.p. The control group animals were given sterile/distilled water with few drops of Tween 80. Starting 5 min after the acetic acid injection, the number of muscular contractions in each mouse was counted for 30 min. A significant reduction in the number of writhing by a conjugate compared with control animals was considered as a positive analgesic response. Percentage protection was calculated according to equ. (3), where n is the average number of writhing in the control group and n′ is the average number of writhing in the treated group. The % potency was calculated by equ. (4) (Table 2).
# [3] = system: LPS-stimulated RAW264.7 macrophages; assay: NO production (nitrite, Griess method) in LPS-stimulated RAW264.7; format: cell-based; conditions: LPS 10 ng/mL
# Protocol: The Griess method was used to determine the nitrite concentration in cell culture medium. […] The next day, a volume of 150 μL of the cell supernatant was transferred to a new 96-well plate and 130 μL of deionized water was added on top of it. Lastly, a volume of 20 μL of Griess reagent was added to the cell supernatant and incubated for 30 min in the dark at room temperature. Griess reagent was prepared according to instructions: 1:1 ratio of N-1-naphthyl-ethylenediamine (0.1%) and phosphoric acid (5%) in sulphanilamide (1%) in distilled water. […] The concentration of nitrite was determined using a NaNO2 standard curve.
# The nitrite production in the supernatant in the culture medium was measured using Greiss reaction.
# gastric mucosa [4] = assay: ulcerogenic liability; conditions: for % Incidence of ulcer divided by 10 / Average of ulcer number / Average severity of ulcer / Number of animals with ulcer: three successive days, 10 mg/kg indomethacin mol equivalent; for Number of animals with ulcer: 6 animals
# Protocol: as §2
# RAW264.7 macrophages = assay: cell viability, MTT assay; format: cell-based; conditions: LPS-stimulated cells treated, FIG. 2B
# Protocol: To ensure that the inflammatory response is not due to cell toxicity, cell viability measurements were done using MTT colorimetric assay. On the same cell cultured 96-well plate from the previous experiment, 100 μL of 1 mg/mL MTT solution was added to the adherent RAW264.7 macrophages cells at 37° C. and incubated for 2 h. After that, 100 μL of DMSO was added to the wells to dissolve insoluble formazan crystals. Absorbance was measured spectrophotometrically at 540 nm using a NanoSPECTROstar microplate reader (BMG LABTECH, Germany). Cell viability was then calculated as a percentage of untreated control.
# Cytotoxicity of the macrophages was evaluated using MTT assay.
SMILES,% Protection (hot plate latency; After 30 min.),% Protection (hot plate latency; After 60 min.),% Protection (hot plate latency; After 90 min.),% Protection (hot plate latency; After 120 min.),Potency (hot plate latency) [%],IC50 (COX-1) [µM],SI (COX-2),IC50 (COX-2) [µM],Potency [2] [%],% Incidence of ulcer divided by 10 (gastric mucosa [4]; oral),Average of ulcer number (gastric mucosa [4]; oral),Average severity of ulcer (gastric mucosa [4]; oral),Number of animals with ulcer (gastric mucosa [4]; oral),further results
"C#CCOC(=O)C(C)c1ccc(CC(C)C)cc1 (stereo not shown) [Compound 3, prop-2-yn-1-yl 2-(4-isobutylphenyl) propanoate]",(55.2) %,2.1** (48.3) %,(19.2) %,(14.9) %,26.4,19.4 ± 0.55,2.262,8.6 ± 0.24,100.0,,,,,"toxic symptoms and mortality (toxicological bioassay): No toxic symptoms or mortality; Latency period ± SE (hot plate latency; After 30 min.): 10.37 s; Latency period ± SE (hot plate latency; After 60 min.): 10.78 s; Latency period ± SE (hot plate latency; After 90 min.): 10.62 ± 2.2 s; Latency period ± SE (hot plate latency; After 120 min.): 10.35 ± 1.7 s; Ulcer index (gastric mucosa [1]): 4.33; % Incidence of ulcer divided by 10 (gastric mucosa [1]; po, 10 mg/kg): 3.33; Average of ulcer number (gastric mucosa [1]; po, 10 mg/kg): 0.33; Average severity of ulcer (gastric mucosa [1]; po, 10 mg/kg): 0.67; Number of animals with ulcer (gastric mucosa [1]; po, 10 mg/kg): 2/6; Writing reflex ± SE ([2]; number of writhing counted for 30 min, 10 mg/kg indomethacin mol equivalent i.p.): 11.3 ± 0.9; % Inhibition/protection ([2]; vs control, 10 mg/kg indomethacin mol equivalent i.p.): 71.8%"
"COc1ccccc1-n1cc(COC(=O)C(C)c2ccc(CC(C)C)cc2)nn1 (stereo not shown) [Compound 5e, (1-(2-Methoxyphenyl)-1H-1,2,3-triazol-4-yl)methyl 2-(4-isobutylphenyl)propanoate]",,,,,,5.42,0.387,14 ± 0.4,,0,0,0,0,"decrease in NO production in comparison to LPS-stimulated cells (in words) [3]: insignificant decrease; Observed property (hot plate latency; % Protection central analgesic (120 min)): 28; 1/(observed property) ([2]; 1/(% inhibition) peripheral analgesic): 0.0158; Observed property ([2]; % inhibition/protection peripheral analgesic): 63.3; ulcers or erosions to the gastric / ulcerogenic liability (in words) (gastric mucosa [4]; mice, oral): none and No ulcerogenic liability; Ulcer index (gastric mucosa [4]; sum of the three values): 0"
"COc1ccc2c(c1)c(CC(=O)O)c(C)n2C(=O)c1ccc(Cl)cc1 [Indo, indomethacin, reference compound]",(87.1) %,1.6** (80.9) %,(57.9) %,(56.5) %,100,,,,100.0,10,2,1.67,6/6,cytotoxicity (MTT) in comparison to control (RAW264.7 macrophages): no significant cytotoxicity; Potency ([2]; listed as indomethacin): 100%
